Read-outs that look alike come from different tables or passages of the source.

The values that follow come from patent US20150225369A1, “DDR2 INHIBITORS FOR THE TREATMENT OF OSTEOARTHRITIS” (Merck Patent GmbH, priority 2012, published 2015).

Assay [1] has as its target T1, His-tagged human recombinant DDR-2 kinase domain (His-TEV-DDR2 467-855 aa) (Homo sapiens, UniProt Q16832).
T1 construct: His-TEV-DDR2 467-855 aa
T1 sequence (Q16832 467-855): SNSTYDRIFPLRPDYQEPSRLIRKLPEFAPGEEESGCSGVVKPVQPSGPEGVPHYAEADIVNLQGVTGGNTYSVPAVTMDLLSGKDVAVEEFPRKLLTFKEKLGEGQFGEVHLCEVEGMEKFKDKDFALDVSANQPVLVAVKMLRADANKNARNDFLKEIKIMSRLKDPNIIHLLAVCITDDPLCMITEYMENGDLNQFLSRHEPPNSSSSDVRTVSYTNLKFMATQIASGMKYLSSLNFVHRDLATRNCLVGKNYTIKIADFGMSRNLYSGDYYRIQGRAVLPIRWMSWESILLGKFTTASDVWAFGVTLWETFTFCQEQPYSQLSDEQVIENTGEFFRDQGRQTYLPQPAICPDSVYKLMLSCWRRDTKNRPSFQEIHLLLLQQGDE
Put plainly: Autophosphorylation assay for biochemical activity testing of DDR2 (HTRF). A digest of the protocol: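 Phospho-tyrosine was detected by HTRF between XL665 anti-6His and cryptate anti-phosphotyrosine PT66 antibodies, using the emission ratio. Inhibition was referenced to the inhibitor-free reaction.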
Background: In TR-FRET formats the signal depends on donor and acceptor labels being close together.

The target in assay [2] is T2, HEK293 transfected with human DDR2 (Homo sapiens, UniProt Q16832).
T2 construct: expressed in transfected cells; host or cells: HEK293 (PLT460F_(DDR2)-P7-1)
T2 sequence (Q16832 22-855): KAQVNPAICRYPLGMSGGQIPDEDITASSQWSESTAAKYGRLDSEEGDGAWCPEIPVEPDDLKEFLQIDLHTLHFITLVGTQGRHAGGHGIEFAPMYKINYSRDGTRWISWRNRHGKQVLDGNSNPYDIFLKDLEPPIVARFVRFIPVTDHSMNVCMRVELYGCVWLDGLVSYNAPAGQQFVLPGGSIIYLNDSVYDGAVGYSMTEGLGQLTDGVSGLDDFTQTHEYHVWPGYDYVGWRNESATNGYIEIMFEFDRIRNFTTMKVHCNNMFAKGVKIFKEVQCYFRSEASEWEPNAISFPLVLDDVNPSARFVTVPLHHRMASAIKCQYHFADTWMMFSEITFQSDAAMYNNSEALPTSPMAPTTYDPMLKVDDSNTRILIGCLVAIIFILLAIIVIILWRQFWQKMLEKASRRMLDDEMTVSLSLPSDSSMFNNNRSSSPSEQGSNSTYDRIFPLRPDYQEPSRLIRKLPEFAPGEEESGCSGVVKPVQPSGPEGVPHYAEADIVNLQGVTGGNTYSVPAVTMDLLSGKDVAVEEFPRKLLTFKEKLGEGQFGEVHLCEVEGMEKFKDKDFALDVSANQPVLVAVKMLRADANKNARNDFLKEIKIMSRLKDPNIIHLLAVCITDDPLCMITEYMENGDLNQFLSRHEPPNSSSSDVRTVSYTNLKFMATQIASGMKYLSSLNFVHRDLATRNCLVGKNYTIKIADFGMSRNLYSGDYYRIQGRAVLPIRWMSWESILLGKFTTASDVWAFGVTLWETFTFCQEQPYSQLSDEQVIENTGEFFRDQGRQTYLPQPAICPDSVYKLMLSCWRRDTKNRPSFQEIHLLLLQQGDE
Put plainly: Phospho-DDR2 cellular assay (collagen II induced DDR2 phosphorylation, ELISA). It counts as cell-based. The settings on record: read-out: IC50 [p-DDR2]. As to the method: Assays were performed in a 384 well plate format, using cell line HEK293 transfected with human DDR2 (PLT460F_(DDR2)-P7-1)
Cells were seeded at a density of 10'000 cells/well in 384well poly-D-lysine coated Black/clear plate (Cellcoat Greiner) and incubated in DMEM medium in the presence of 10% fetal bovine serum at 37° C., 5% CO2 for 48 h. Medium was replaced by serum-free medium and cells were incubated at 37° C., 5% CO2 for 8 h. Compound to be tested in 5% DMSO or 5% DMSO and 50 μg/ml of chicken collagen II were added and cells were incubated at 37° C., 5% CO2 for 16 h
Cells were rinsed with ice-cold PBS, lysed with lysis buffer (M-PER Thermo #78501) for 30 min at room temperature and centrifuged for 1 min at 1000 RPM. In parallel, White High binding 384 well plates (Corning) were coated with mouse anti-human DDR2 capture antibody (R&D Systems kit DuoSet IC Human phospho-DDR2 ELISA), overnight at RT.
An aliquot of cell lysate was transferred to the coated plates and incubated for 2 h at RT. Plates were washed and mouse anti-phospho-tyrosine detection antibody (R&D Systems kit DuoSet IC Human phospho-DDR2 ELISA) conjugated to horse radish peroxidase (HRP) was added for 2 h at RT. Plates were washed and chemiluminescent substrate for HRP (Thermo) was added for 15 min at RT. Luminescence was measured on a luminometer.
Background: In an ELISA, binding on a coated surface is turned into a signal by an enzyme label.

The mark [3] stands for this setting: 4 nM DDR2 kinase domain, 150 μM ATP, 150 min at 22° C.
[4] abbreviates: HEK293 transfected with human DDR2, 50 μg/ml chicken collagen II, 16 h.
[5] abbreviates: biochemical DDR2 autophosphorylation.

Take `Cn1cc(C(F)(F)F)cc(NC(=O)NCc2ccc(Oc3ccnc4ccc(C(F)(F)F)cc34)cc2)c1=O` [compound 2]: the half-maximal inhibitory concentration (IC50) (as a rule, the point on the concentration scale where inhibition reaches its midpoint) in assay [1] (setting [3]) came to 0.4 µM; in assay [2] (setting [4]), 5.6 µM.
The matching figures for `COc1ccc(C(F)(F)F)cc1NC(=O)Nc1ccc(Cc2nc3cc[nH]c(=O)c3[nH]2)cc1` [compound 3]: 0.062 µM and 0.11 µM.
On the same counts, the results for `Cn1cc(C(F)(F)F)cc(NC(=O)NCc2ccc(Oc3ccnc4[nH]ccc34)cc2)c1=O` [compound 3] are 0.066 µM and 0.02 µM.
On the same counts, the results for `O=C(Nc1ccc(Cc2nc3cc[nH]c(=O)c3[nH]2)cc1)Nc1cccc(C(F)(F)F)c1` [compound 4] are 0.025 µM and 0.32 µM.
For `CNC(=O)c1cc(Oc2ccc(COC(=O)Nc3ccc(Cl)c(C(F)(F)F)c3)cc2)ccn1` [compound 6], the IC50 in assay [1] (setting [3]) was found to be 0.42 µM; in assay [2] (setting [4]) it was 0.27 µM.
For `CNC(=O)c1cc(Oc2ccc(CNC(=O)Nc3cc(Cl)ccc3OC)cc2)ccn1` [compound 19], the results for the IC50 in assay [1] (setting [5]) and in assay [2] (cellular phospho-DDR2) were 0.03 µM and 0.014 µM, respectively.
Consider `CNC(=O)c1cc(Oc2ccc(CNC(=O)Nc3cc(C)cnc3OC)cc2C)ccn1` [compound 20], for which the IC50 in assay [1] (setting [3]) is 0.11 µM; in assay [2] (setting [4]), 0.041 µM.
`CNC(=O)c1cc(Oc2ccc(CNC(=O)Nc3cc(C(F)(F)F)cnc3Cl)cc2)ccn1` [compound 24]: the IC50 stood at 0.13 µM in assay [1] (setting [3]) and 0.058 µM in assay [2] (setting [4]).
On the same counts, the results for `CNC(=O)c1cc(Oc2ccc(CNC(=O)Nc3cc(C)cnc3Cl)cc2C)ccn1` [compound 25] are 0.41 µM and 0.087 µM.
The matching figures for `COc1ncc(Cl)cc1NC(=O)NCc1ccc(Oc2ccnc(C)c2)cc1` [compound 27]: 0.19 µM and 0.042 µM.
On the same counts, the results for `Cc1cc(Oc2ccc(CNC(=O)Nc3cc(C(F)(F)F)cnc3Cl)cc2)ccn1` [compound 29] are 0.35 µM and 0.094 µM.
In the case of `CNC(=O)c1cc(Oc2ccc(CNC(=O)Nc3cc(Cl)c(C)cc3OC)cc2)ccn1` [compound 66, 4-{4-[3-(5-Chloro-2-methoxy-4-methyl-phenyl)-ureidomethyl]-phenoxy}-pyridine-2-carboxylic acid methylamide], the IC50 came to 0.055 µM in assay [1] (setting [5]) and 0.009 µM in assay [2] (cellular phospho-DDR2).
On the same counts, the results for `CNC(=O)c1cc(Oc2ccc(C(C)NC(=O)Nc3cc(Cl)ccc3OC)cc2)ccn1` (stereo not shown) [compound 72, 4-(4-{1-[3-(5-Chloro-2-methoxy-phenyl)-ureido]-ethyl}-phenoxy)-pyridine-2-carboxylic acid methylamide] are 0.34 µM and 0.074 µM.
The matching figures for `CNC(=O)c1cc(Oc2ccc(CNC(=O)Nc3cc(C)c(Cl)cc3OC)cc2)ccn1` [compound 78, 4-{4-[3-(4-Chloro-2-methoxy-5-methyl-phenyl)-ureidomethyl]-phenoxy}-pyridine-2-carboxylic acid methylamide]: 0.1 µM and 0.024 µM.
The matching figures for `CNC(=O)c1cc(Oc2ccc(CNC(=O)Nc3cc(OC)c(Cl)cc3OC)cc2)ccn1` [compound 83, 4-{4-[3-(4-Chloro-2,5-dimethoxy-phenyl)-ureidomethyl]-phenoxy}-pyridine-2-carboxylic acid methylamide]: 0.76 µM and 0.14 µM.
Take `CNC(=O)c1cc(Oc2ccc(CNC(=O)Nc3c(Cl)cncc3Cl)cc2)ccn1` [compound 84, 4-{4-[3-(3,5-Dichloro-pyridin-4-yl)-ureidomethyl]-phenoxy}-pyridine-2-carboxylic acid methylamide]: the IC50 was 0.81 µM in assay [1] (setting [5]) and 0.745 µM in assay [2] (cellular phospho-DDR2).
As for `CNC(=O)c1cc(Oc2ccc(CNC(=O)Nc3ccnc(Cl)c3)cc2)ccn1` [compound 89, 4-{4-[3-(2-Chloro-pyridin-4-yl)-ureidomethyl]-phenoxy}-pyridine-2-carboxylic acid methylamide], the IC50 in assay [1] (setting [5]) was 1 µM; in assay [2] (cellular phospho-DDR2) it was 1.45 µM.
For the compound `CNC(=O)c1cc(Oc2ccc(CNC(=O)Nc3cc(Cl)ccc3OC)cc2C)ccn1` [compound 100, 4-{4-[3-(5-Chloro-2-methoxy-phenyl)-ureidomethyl]-2-methyl-phenoxy}-pyridine-2-carboxylic acid methylamide], the IC50 in assay [1] (setting [5]) came out at 0.12 µM; in assay [2] (cellular phospho-DDR2), 0.025 µM.
On the same counts, the results for `CNC(=O)c1cc(Oc2ccc(CNC(=O)Nc3c(OC)cc(Cl)c(C)c3Cl)cc2)ccn1` [compound 103, 4-{4-[3-(2,4-Dichloro-6-methoxy-3-methyl-phenyl)-ureidomethyl]-phenoxy}-pyridine-2-carboxylic acid methylamide] are 14 µM and 4.6 µM.
Take `CNC(=O)c1cc(Oc2ccc(CNC(=O)Nc3cc(C)c(Cl)cc3OCCN3CCOCC3)cc2)ccn1` [compound 110, 4-(4-{3-[4-Chloro-5-methyl-2-(2-morpholin-4-yl-ethoxy)-phenyl]-ureidomethyl}-phenoxy)-pyridine-2-carboxylic acid methylamide]: the IC50 in assay [1] (setting [5]) came to 0.29 µM; in assay [2] (cellular phospho-DDR2), 0.13 µM.
On the same counts, the results for `CNCCOc1ccc(C(F)(F)F)cc1NC(=O)NCc1ccc(Oc2ccnc(C(=O)NC)c2)cc1` [compound 111, 4-(4-{3-[2-(2-Methylamino-ethoxy)-5-trifluoromethyl-phenyl]-ureidomethyl}-phenoxy)-pyridine-2-carboxylic acid methylamide] are 0.064 µM and 0.024 µM.
As for `CNC(=O)c1cc(Oc2ccc(CNC(=O)Nc3cc(C)on3)cc2)ccn1` [compound 236, 4-{4-[3-(5-Methyl-isoxazol-3-yl)-ureidomethyl]-phenoxy}-pyridine-2-carboxylic acid methylamide], the IC50 in assay [2] (cellular phospho-DDR2) is 2.05 µM.
On the same count and under the same terms, the figure for `CNC(=O)c1cc(Oc2ccc(CNC(=O)Nc3cc(C(F)(F)F)ccc3-n3ccnc3)cc2C)ccn1` [compound 240, 4-{4-[3-(2-Imidazol-1-yl-5-trifluoromethyl-phenyl)-ureidomethyl]-2-methyl-phenoxy}-pyridine-2-carboxylic acid methylamide] is 2.9 µM; for `CNC(=O)c1cc(Oc2ccc(CNC(=O)Nc3ccc(NC(C)=O)c(C(F)(F)F)c3)cc2)ccn1` [compound 241, 4-{4-[3-(4-Acetylamino-3-trifluoromethyl-phenyl)-ureidomethyl]-phenoxy}-pyridine-2-carboxylic acid methylamide] it is 0.71 µM.
On the same count and under the same terms, the figure for `CNC(=O)c1cc(Oc2ccc(CNC(=O)Nc3cc(C(F)(F)F)ccc3-n3ccnc3)cc2)ccn1` [compound 243, 4-{4-[3-(2-Imidazol-1-yl-5-trifluoromethyl-phenyl)-ureidomethyl]-phenoxy}-pyridine-2-carboxylic acid methylamide] is 9.4 µM.
